These results are taken from patent publication US20100240627A1, “COMPOSITION AND METHODS RELATING TO GLUCOCORTICOID RECEPTOR-ALPHA AND PEROXISOME PROLIFERATOR-ACTIVATED RECEPTORS” (Universiteit Gent, priority 2007, published 2010).

Series [1] concerns PDK-4 mRNA (PPARα target gene). Kind of series: PDK-4 mRNA in primary hepatocytes of WT and PPARα KO mice. The format is cell-based, mouse. The conditions noted are these: 24 h, GW9578 500 nM, WY 10 μM. The procedure:
Mouse hepatocytes are isolated by collagenase perfusion from livers of wild type and PPARα KO (PPARα−/−) mice essentially using the collagenase method (18), with several modifications. Mouse livers are perfused with Hanks' balanced salt solution (HBSS, Sigma) at a rate of 5 ml/min via cave vein before addition of collagenase Type IV (0.025%, Sigma). Cell viability is assessed by a Trypan Blue exclusion test. […] After overnight incubation, cells are incubated in a fresh William's E medium supplemented with different compounds, DEX and/or PPARα agonists.

Series [2] addresses T1, mouse PPARα (Mus musculus, UniProt P23204).
T1 sequence (P23204 1-468): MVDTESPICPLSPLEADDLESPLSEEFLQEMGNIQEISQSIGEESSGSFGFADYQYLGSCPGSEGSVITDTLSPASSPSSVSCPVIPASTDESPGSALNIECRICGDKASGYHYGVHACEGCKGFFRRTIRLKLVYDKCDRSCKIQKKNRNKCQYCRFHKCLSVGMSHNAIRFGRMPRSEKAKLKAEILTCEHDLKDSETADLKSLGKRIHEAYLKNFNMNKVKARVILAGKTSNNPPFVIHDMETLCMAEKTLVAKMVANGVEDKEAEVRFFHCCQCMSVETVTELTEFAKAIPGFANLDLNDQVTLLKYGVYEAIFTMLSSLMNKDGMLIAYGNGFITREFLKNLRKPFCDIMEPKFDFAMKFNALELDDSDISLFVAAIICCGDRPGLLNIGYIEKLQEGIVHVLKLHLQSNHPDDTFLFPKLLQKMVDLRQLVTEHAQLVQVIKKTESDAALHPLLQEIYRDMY
The conditions noted are these: cited from earlier work.

Series [3] concerns NF-κB-driven gene expression. In words: p(IL6κB)350hu.IL6P-luc reporter in transfected HEK293T cells. The series is classed as cell-based. The conditions noted are these: TNF 2000 IU/ml 8 h. Here is the method:
(§1) Cell lysates are assayed for luciferase activities and normalized for β-gal activities. A representative of three independent experiments is shown.

Series [4] relates to GRE-driven gene expression. In words: p(GRE)2-50-luc reporter in transfected HEK293T cells. The conditions noted are these: 8 h, DEX 1 or 0.1 μM. The series is classed as cell-based. Here is the method:
as §1

Series [5] deals with TNF-induced IL-6 production in L929sA cells. Kind of series: TNF-induced IL-6 production, murine IL-6 ELISA. The format is cell-based. The conditions noted are these: 1 h pre-incubation, TNF 200 IU/ml 24 h, DEX 0.01 μM, GW647 0.25-1 μM, WY 2-10 μM, FIG. 1. The procedure: Murine IL-6 ELISA is performed using a kit from Biosource.
Medium is collected to perform a murine IL-6 ELISA. Protein levels obtained in ng/ml are calculated as % of max TNF response. Results are shown ±SD. **P<0.01, ***P<0.001 in FIG. 1.
For orientation: ELISA stands for enzyme-linked immunosorbent assay.

Series [6] deals with GRE-driven gene transcription. In words: p(GRE)2-50-luc reporter in HepG2 cells. The conditions noted are these: HepG2 overexpressing PPARα (pSG5PPARα); 8 h. The format is cell-based, human.
Method: HepG2 and BWTG3 cells are transiently transfected using Lipofectamine according to the manufacturer's instructions, HEK293T cells using CaPO4. At day −1 40,000-50,000 cells/24-well are seeded. At day 0, medium is replaced by 360 μl of fresh normal medium with 10% serum to the cells. The DNA mix is prepared by dissolving (per 24-well) 400 ng of DNA in 20 μl of TE/CaCl2 solution. The DNA-containing mixture is added dropwise to 20 μl BS/Hepes mixture. All is mixed until a fine precipitate is visible. This precipitate is finally added onto the 360 μl medium. After 8 h, medium is replaced with fresh normal medium with 10% serum and inductions are performed the following day. […]
Luc and β-gal assays are carried out according to instructions of the manufacturer (Promega). Luc activity, expressed in arbitrary light units, is corrected for the protein conc. in the sample by normalization to constitutive β-gal levels. β-gal levels are quantified with a chemiluminescent reporter assay Galacto-Light kit (TROPIX, Bedford, Mass.).
HepG2 cells are transiently transfected with p(GRE)2-50-luc, and pSG5PPARα (black bars) or pSG5 (white bars). […] Promoter activities are expressed as relative induction factor, i.e., the ratio of expression levels of induced versus non-induced conditions.
The test system of series [7] is human placental alkaline phosphatase (hPAP) mRNA. In words: Semi-quantitative PCR of hPAP mRNA. The conditions noted are these: HepG2 and A549 cells, 8 h; DEX 1 μM, WY 10 μM; co-treatment compared to DEX alone. The format is cell-based. The procedure: (§2) RNA extraction is performed as described before (12). RNA is isolated from cells by using TRIzol reagent (Invitrogen) according to the manufacturer's instructions. The reverse transcriptase reaction is done by using MLV enzyme (Promega) followed by a PCR reaction with Taq polymerase (Promega) on the obtained cDNA. cDNA is analyzed either by a semi-quantitative PCR using Taq polymerase (Promega) or by real-time PCR with a SYBR Green mastermix (Invitrogen). Primers for QPCR of mIL-6: fwd […] (SEQ ID No. 1) and rev […] (SEQ ID No. 2); for mGILZ: fwd […] (SEQ ID No. […]) and rev […] (SEQ ID No. 4); for hGILZ: fwd […] (SEQ ID No. 5) and rev […] (SEQ ID No. 6); for mG6Pase: fwd […] (SEQ ID No. 7) and rev […] (SEQ ID No. 8); for rMCP-1: fwd […] (SEQ ID No. 9) and rev […] (SEQ ID No. 10); for mMMP-9: […] (SEQ ID No. 11) and rev […] (SEQ ID No. 12). Primers for semi-QPCR of hPLAP: fwd […] (SEQ ID No. 13) and rev […] (SEQ ID No. 14).
A549 or HepG2 cells are treated for eight hours, mRNA is isolated, reverse transcribed and the resulting cDNA is subjected to semi-quantitative PCR analysis with primers to detect GAPDH (loading control) or hPAP in the same sample. […] Treatment with WY alone has no effect on hPAP mRNA expression.

Series [8] concerns Glucocorticoid-induced Leucine Zipper (GILZ) mRNA. In words: QPCR of GILZ mRNA in HepG2 cells. The series is classed as cell-based, human. The conditions noted are these: HepG2 (and A549) cells, 3 h; co-treatment compared to DEX alone. Here is the method:
as §2
HepG2 cells and FTO2B cells are incubated with the indicated agents for three hours. mRNA is isolated, reverse transcribed and the resulting cDNA is subjected to SYBR green QPCR with primers to detect G6Pase or Glucocorticoid-induced Leucine Zipper (GILZ). QPCR measurements are performed in triplicate. QPCR results, normalized to expression of household genes, are shown ±SD, in FIGS. 2B and 2C. […]

Series [9] has as its system cathepsin K. Kind of series: Cathepsin K expression in MG63b osteosarcoma cells. The series is classed as cell-based, human. The conditions noted are these: 24 hour, DEX 10^−6M, WY 10 μM.
Method: Cell culture—Human osteosarcoma cells MG63b and Saos-2 are cultured in Dulbecco Modified Eagle's Medium (DMEM) and McCoy's 5a Medium respectively, supplemented with 10% fetal calf serum (FCS), 100 units/ml penicillin and 0.1 mg/ml streptomycin. RT-PCR—After the appropriate inductions RNA is isolated from the cells by means of the RNeasy mini kit (Qiagen) according to the manufacturer's instructions. The mRNA is reverse transcribed with the verso cDNA kit (ABgene). The obtained cDNA is amplified by a quantitative PCR reaction with iQ Custom SYBR Green Supermix (Biorad). Gene expression of the housekeeping gene hypoxanthine-guanine phosphoribosyltransferase (HPRT) is used for normalization.
For series [10], the system named is ACO mRNA in mouse liver. Kind of series: Liver ACO mRNA in treated mice. The series is classed as in vivo. The conditions noted are these: DEX 10 mg/kg i.p., FF 200 mg/kg gavage, daily 5 days. The text has this:
Female C57BL6J mice are used at 8 weeks. Mice are randomized to four groups (six mice/group) and matched for body weight. Animals are killed by cervical dislocation after which thymus and liver are recovered and weighed. Total RNA is extracted from liver as described below. ANOVA is used for all analyses, followed by Scheffe post-hoc tests for treated vs control comparisons. The level of significance for all statistical analyses is set at p<0.05.
GILZ and ACO mRNA expression levels from the liver are quantified via QPCR and normalized for household gene expression. Results from triplicates are shown ±SD. Results are represented as relative expression fold, i.e. with the solvent-treated control value taken as 1.

Series [11] relates to calvarial cells. In words: Ex vivo osteoclastogenesis and osteoblast differentiation of calvarial cells. The series is classed as cell-based, mouse. The conditions noted are these: pharmacological DEX concentrations. The procedure:
Glucocorticoid-induced osteoporosis (GIO) has been considered one of the most debilitating side-effects related to long-term GC usage (Berris, Repp et al. Curr Opin Endocrinol Diabetes Obes 14(6): 446-50). The effects of compositions and methods of the present invention on glucocorticoid-induced osteoporosis is determined by analysis of markers of osteoclastogenesis, including cathepsin K, M-CSF, RANKL and OPG. Since it is believed that an increase in bone resorption is worsened by inhibition of new bone formation, thereby contributing to the GC-mediated decrease in bone mineral density, the effect compositions and methods of the present invention on osteoblast differentiation is determined using calvarial cells isolated from 3-5 day old mice.
Alkaline phosphatase staining and Q-PCR are performed for the detection of Collal, Alkp, Runx-2 and Bglap (osteocalcin) expression after 10 days of osteoblast differentiation. Alizarin Red staining is performed to determine extracellular calcium deposition after 20 days of osteoblast differentiation.
Calvarial cells are isolated from 3-5 day old mice (SV 129 background). A piece of the tail is isolated for genotyping. The pups are decapitated with scissors in the laminar flow cabinet, skin and brain are removed and the calvaria transferred into eppendorf tubes containing 1 ml PBS+1% Pen/Strep. The tubes are put on ice until digestion. […]

Series [12] concerns TRAP5b. In words: Serum TRAP5b ELISA in DBA/1 mice. The series is classed as in vivo, mouse. The conditions noted are these: DBA/1 mice serum, daily treatment 8 days. From the text: (§3) Male 8- to 12-wk-old DBA/1 mice are purchased from Janvier and housed following institutional guidelines. All animal procedures are approved by the institutional animal care and ethics committee. […] The experiment is repeated with agonists for PPARα replaced by the respective agonists for PPARγ (rosiglitazone) or PPARβ/δ (L165041). At day 8, murine serum is collected and used for the determination of TRAP5b and osteocalcin levels. The Mouse TRAP™ Assay is purchased from Immunodiagnostic Systems Ltd. The Mouse Osteocalcin EIA kit is purchased from Biomedical Technologies, Inc. All assays are performed according to the manufacturer's guidelines.
(§4) The experiment is repeated with agonists for PPARα replaced by the respective agonists for PPARγ (rosiglitazone) or PPARβ/δ(L165041). A TRAP5b ELISA assay is performed for the detection of differentiated osteoclasts.

In series [13] the test system is osteocalcin. Kind of series: Serum osteocalcin in DBA/1 mice. The series is classed as in vivo, mouse. The conditions noted are these: daily treatment 8 days.
From the text: as §3, §4

The EC50 is the midpoint of the concentration-response curve. Consider `CCCCCCCN(CCc1ccc(SC(C)(C)C(=O)O)cc1)C(=O)Nc1ccc(F)cc1F` [GW9578], for which the “PDK-4 mRNA levels” value in [1] is listed as “significant increase in PDK-4 mRNA levels only in WT cells”. In addition, the EC50 in [2] is 5 nM.
As to `O=S(=O)(c1ccccc1)N(CC(F)(F)F)c1ccc(C(O)(C(F)(F)F)C(F)(F)F)cc1` [T0901317], in series [3] (HEK293T with pSVhGRα and LXR plasmid, T0901317 1 μM, FIG. 12C), the “NF-κB-driven gene expression (luc)” value was “efficiently inhibit NF-κB-driven gene expression”. Further, the “GRE-driven gene expression (luc)” value in series [4] (HEK293T with pSVhGRα and pCMX-LXR, T0901317 1 μM, FIG. 13C) is recorded as “not able to antagonize GRE-driven gene expression”.
In the case of `CC(C)(Sc1ccc(CCN(CCCCC2CCCCC2)C(=O)NC2CCCCC2)cc1)C(=O)O` [GW647, 2-(4-(2-(1-Cyclohexanebutyl-3-cyclohexylureido)ethyl)phenylthio)-2-methylpropionic acid], the “TNF-induced IL-6 production” value in series [5] was “inhibited TNF-induced IL-6 production in a dose-responsive manner”. Besides, the “DEX-induced luciferase activity of p(GRE)2-50-luc” value in series [6] is “further enhanced”. Also, the “NF-κB-driven gene expression (luc)” value in series [3] (HEK293T with pSVhGRα and pSG5PPARα, GW647 0.5 μM, FIG. 12A) was “inhibits NF-κB-driven gene expression”. Besides, in [4] (HEK293T with pSVhGRα and pSG5PPARα, GW647 0.5 μM, FIG. 13A), the “GRE-driven gene expression (luc)” value is listed as “able to antagonize GRE-driven gene expression”.
For the compound `CCCc1c(OCCCOc2ccc(OCC(=O)O)cc2)ccc(C(C)=O)c1O` [L165041], the “NF-κB-driven gene expression (luc)” value in [3] (HEK293T with pSVhGRα and pSG5PPARδ, L165041, FIG. 12B) is “efficiently inhibit NF-κB-driven gene expression”. Moreover, the “GRE-driven gene expression (luc)” value in [4] (HEK293T with pSVhGRα and pSG5PPARδ, L165041 1 μM, FIG. 13B) was “able to antagonize the GRE-driven gene expression”.
With `Cc1cccc(Nc2cc(Cl)nc(SCC(=O)O)n2)c1C` [WY, [[4-chloro-6-[(2,3-dimethylphenyl)amino]-2-pyrimidinyl]thio]-acetic acid], the “TNF-induced IL-6 production” value in series [5] was “inhibited TNF-induced IL-6 production in a dose-responsive manner”. The “hPAP mRNA expression” value in [7] is reported as “no effect”. Also, the “GILZ mRNA expression” value in series [8] was “no effect”. For the same compound, the “DEX-induced luciferase activity of p(GRE)2-50-luc” value in series [6] was “confirmed”. For the same compound, the “PDK-4 mRNA levels” value in series [1] is “significant increase in PDK-4 mRNA levels only in WT cells”. In [9], the “cathepsin K expression” value is “prevent or reverse the upregulation”.
For `C[C@@H]1C[C@H]2[C@@H]3CCC4=CC(=O)C=C[C@]4(C)[C@@]3(F)[C@@H](O)C[C@]2(C)[C@@]1(O)C(=O)CO` [DEX, dexamethasone], the “ACO mRNA levels in liver” value in [10] is on record as “no effect”. Besides, the osteoclastogenesis result in series [11] was “inhibit osteoclastogenesis”. Moreover, the TRAP5b levels entry in [12] is “upregulates TRAP5b levels after 8 days”. In addition, the “amount of osteocalcin in murine serum” value in [13] is “significantly lowers”.
